Data from patent publication US10676514B2, “CDCA1-derived peptide and vaccine containing same” (ONCOTHERAPY SCIENCE, INC., priority 2014, dated 2020).
Entries after “also recorded” stand apart in the source; their conditions may differ.

Tests used:
[1] = test system: peptide-pulsed C1R-A03; experiment: IFN-gamma ELISPOT assay of peptide-induced CTLs (HLA-A*0301); assay type: cell-based, human; conditions: CTLs induced from HLA-A*0301-positive donors, peptide-pulsed C1R-A03 vs control
From the text: Monocyte-derived dendritic cells (DCs) were used as the antigen-presenting cell to induce a cytotoxic T lymphocyte (CTL) response against peptides presented on human leukocyte antigens (HLAs). As described in the other sections, DCs were generated in vitro (Nakahara S et al., Cancer Res 2003, 63(14): 4112-8). Specifically, peripheral-blood mononuclear cells isolated from healthy volunteers (HLA-A*0301-positive) with the Ficoll-Paque plus solution (Pharmacia) were separated by attaching to plastic tissue culture dishes (Becton Dickinson) and concentrated as a monocyte fraction. The monocyte-concentrated population was cultured in the presence of 1000 IU/ml granulocyte macrophage colony-stimulating factor (R&D System) and 1000 IU/ml interleukin(IL)-4 (R&D System) in an AIM-V medium (Invitrogen) containing 2% heat-inactivated autologous serum (AS). After seven days of culturing, the cytokine-induced DCs were pulsed with 20 micro-g/ml each of the synthesized peptides in an AIM-V medium at 37 degrees C. for three hours in the presence of 3 micro-g/ml beta 2-microglobulin. The generated cells appeared to express on their cell surface DC-associated molecules such as CD80, CD83, CD86 and HLA class II (data not shown). Next, these peptide-pulsed DCs were inactivated by X-ray irradiation (20 Gy), and mixed in a 1:20 ratio with autologous CD8^+ T cells obtained by positive selection using the CD8 Positive Isolation Kit (Dynal). These culture products were seeded in a 48-well plate (Corning). Each well was made to contain 1.5×10^4 peptide-pulsed DCs, 3×10^5 CD8^+ T cells and 10 ng/ml IL-7 (R&D System) in 0.5 ml of the AIM-V/2% AS medium. Three days later, these culture products were added with a final concentration of 20 IU/ml IL-2 (CHIRON). On day 7 and day 14, T cells were further stimulated with peptide-pulsed autologous DCs. The DCs were prepared every time by the same method as above. On day 21, after the third peptide stimulation, CTLs were examined against the peptide-pulsed C1R-A03 by a human interferon (IFN)-gamma enzyme-linked immunospot (ELISPOT) assay (Tanaka H et al., Br J Cancer 2001, 84(1): 94-9; Umano Y et al., Br J Cancer 2001, 84(8): 1052-7; Uchida N et al., Clin Cancer Res 2004, 10(24): 8577-86; Suda T et al., Cancer Sci 2006, 97(5): 411-9; Watanabe T et al., Cancer Sci 2005, 96(8): 498-506).
(§1) Specifically, peptide-pulsed C1R-A03 (1×10^4 cells/well) was prepared as the stimulator cell. The induced CTLs, i.e., CTL lines and CTL clones, were used as the responder cell. The IFN-gamma ELISPOT assay and IFN-gamma ELISA were performed according to the manufacturer's manual.

[2] = test system: peptide-pulsed C1R-A03; experiment: IFN-gamma ELISA of CTL lines and CTL clones (HLA-A*0301); assay type: cell-based, human; conditions: for IFN-gamma production of CTL clones: CTL clones by limiting dilution; for IFN-gamma production of CTL lines: peptide-pulsed vs non-pulsed target cells, HLA-A*0301
Description: CTLs were propagated in culture using methods similar to those disclosed by Riddell et al. (Walter E A et al., N Engl J Med 1995, 333(16): 1038-44; Riddell S R et al., Nat Med 1996, 2(2): 216-23). The CTLs were co-cultured in a total of 25 ml AIM-V medium containing 5% AS (AIM-V/5% AS) and 40 ng/ml anti-CD3 antibody with two types of Mitomycin C-treated human B lymphoblastoid cell lines at 5×10^6 cells/flask. One day after beginning of the culturing, 120 IU/ml IL-2 was added to the culture. On days 5, 8 and 11, a fresh AIM-V/5% AS medium containing 30 IU/ml IL-2 was added to the culture (Tanaka H et al., Br J Cancer 2001, 84(1): 94-9; Umano Y et al., Br J Cancer 2001, 84(8): 1052-7; Uchida N et al., Clin Cancer Res 2004, 10(24): 8577-86; Suda T et al., Cancer Sci 2006, 97(5): 411-9; Watanabe T et al., Cancer Sci 2005, 96(8): 498-506).
Dilution of CTLs was carried out to make 0.3, 1 and 3 cells/well in 96 round-bottomed microtiter plates (Nalge Nunc International). The CTLs were co-cultured with two types of Mitomycin C-treated human B lymphoblastoid cell lines at 1×10^4 cells/well in a total of 150 micro-l/well AIM-V/5% AS medium with 30 ng/ml anti-CD3 antibody and 125 IU/ml IL-2. Ten days later, IL-2 was added to the medium at 50 micro-l/well to reach a final concentration of 125 IU/ml. On day 14, the CTL activity was tested, and the CTL clones were propagated using the same method as described above (Uchida N et al., Clin Cancer Res 2004, 10(24): 8577-86; Suda T et al., Cancer Sci 2006, 97(5): 411-9; Watanabe T et al., Cancer Sci 2005, 96(8): 498-506).
as §1

## KIKLGIQQLK (a peptide derived from CDCA1) [SEQ ID NO: 38]
[1]; listed as CDCA1-A03-10-400
  peptide-specific CTL activity (IFN-gamma production): potent IFN-gamma production; also recorded: significant specific CTL activity
[2]; peptide-pulsed C1R-A03, listed as CDCA1-A03-10-400
  IFN-gamma production of CTL clones: Potent IFN-gamma production
[2]
  IFN-gamma production of CTL lines: potent IFN-gamma production

## KTKRLNELK (a peptide derived from CDCA1) [SEQ ID NO: 7]
[1]; listed as CDCA1-A03-9-219
  peptide-specific CTL activity (IFN-gamma production): potent IFN-gamma production; also recorded: significant specific CTL activity
[2]; peptide-pulsed C1R-A03, listed as CDCA1-A03-9-219
  IFN-gamma production of CTL clones: Potent IFN-gamma production
[2]
  IFN-gamma production of CTL lines: potent IFN-gamma production
